Measured values as given in paper PMC8116641 (Archives of Virology, 2021).

Tested on: influenza A virus A/Aichi/2/68 (H3N2) (Aichi (H3N2))
Experiment: microbe, parasite or virus in culture
Format: cell-based
Conditions: Influenza A virus, H3N2, MDCK, read-out: IC50 (50% inhibitory concentration)

Compound: CC1(C)[C@H]2CC[C@]1(C)[C@H](OC(=O)C[N+](C)(C)C)C2.[I-] [10a, N,N,N-Trimethyl-2-oxo-2-((1S,2R,4S)-1,7,7-trimethylbicyclo[2.2.1]heptan-2-yloxy)ethanaminium iodide]
- IC50: 16.8 µM
